# Test results: patent US20110251379A1, “COMPOUNDS USEFUL FOR TREATING NEURODEGENERATIVE DISORDERS” (Satori Pharmaceuticals, Inc., priority 2010, published 2011)
# Test system: Aβ-38
# Assay: MSD Human (6E10) Ab 3-PLEX elisa, conditioned media of 2B7 cells: Aβ-38
# Type: cell-based
# Conditions: Homo sapiens; Aβ-38 (superscript a); read-out: 50% reduction value
# How it was run: (§1)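 Confluent 2B7 cells were treated with compounds for 5 hours at 37° C in media with 1% DMSO. Conditioned media, diluted 1:1 in blocking buffer, was incubated overnight at 4 °C or 2 h at room temperature on MSD 6E10 plates. Aβ levels were read against seven-point standard curves, and IC50 was obtained from 4-parameter fits of percent vehicle.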
row,Compound,IC50
1,CCNC(=O)O[C@H](C(C)C)C1C[C@@H](C)[C@H]2C(O1)[C@H](O)[C@@]1(C)C3CC[C@H]4C(C)(C)C(OC(=O)N5CCOCC5)CC[C@@]45C[C@@]35CC[C@]21C (stereo partly drawn),< 1 µM
2,CCNC(=O)O[C@H](C(C)C)C1C[C@@H](C)[C@H]2C(O1)[C@H](O)[C@@]1(C)C3CC[C@H]4C(C)(C)C(OC(N)=O)CC[C@@]45C[C@@]35CC[C@]21C (stereo partly drawn),< 1 µM
3,CCNC(=O)O[C@H](C(C)C)C1C[C@@H](C)[C@H]2C(O1)[C@H](O)[C@@]1(C)C3CC[C@H]4C(C)(C)C(OC(=O)NC5CNC5)CC[C@@]45C[C@@]35CC[C@]21C (stereo partly drawn),< 1 µM
4,CNC(=O)OC1CC[C@]23C[C@]24CC[C@]2(C)[C@@H]5C(OC([C@H](OC(=O)N6CCC6)C(C)C)C[C@H]5C)[C@H](O)[C@@]2(C)C4CC[C@H]3C1(C)C (stereo partly drawn),< 1 µM
5,CC(C)[C@@H](OC(=O)N1CCC1)C1C[C@@H](C)[C@H]2C(O1)[C@H](O)[C@@]1(C)C3CC[C@H]4C(C)(C)C(OC(=O)N5CCn6c(nnc6C(F)(F)F)C5)CC[C@@]45C[C@@]35CC[C@]21C (stereo partly drawn),< 1 µM
6,CC(C)[C@@H](OC(=O)N1CCC1)C1C[C@@H](C)[C@H]2C(O1)[C@H](O)[C@@]1(C)C3CC[C@H]4C(C)(C)C(OC(=O)N5CC6(COC6)C5)CC[C@@]45C[C@@]35CC[C@]21C (stereo partly drawn),< 1 µM
7,CC(C)[C@@H](OC(=O)N1CCC1)C1C[C@@H](C)[C@H]2C(O1)[C@H](O)[C@@]1(C)C3CC[C@H]4C(C)(C)C(OC(=O)NC5COC5)CC[C@@]45C[C@@]35CC[C@]21C (stereo partly drawn),< 1 µM
8,CC(C)[C@@H](OC(=O)N1CCC1)C1C[C@@H](C)[C@H]2C(O1)[C@H](O)[C@@]1(C)C3CC[C@H]4C(C)(C)C(OC(=O)N5CCn6cnnc6C5)CC[C@@]45C[C@@]35CC[C@]21C (stereo partly drawn),< 1 µM

# Same assay, conditions: Homo sapiens; Aβ-38 (superscript a); read-out: IC50 range
row,Compound,IC50
1,CCNC(=O)O[C@H](C(C)C)C1C[C@@H](C)[C@H]2C(O1)[C@H](O)[C@@]1(C)C3CC[C@H]4C(C)(C)C(OC(=O)NC5CNC5)CC[C@@]45C[C@@]35CC[C@]21C (stereo partly drawn),< 1 µM
2,CNC(=O)OC1CC[C@]23C[C@]24CC[C@]2(C)[C@@H]5C(OC([C@H](OC(=O)N6CCC6)C(C)C)C[C@H]5C)[C@H](O)[C@@]2(C)C4CC[C@H]3C1(C)C (stereo partly drawn),< 1 µM

# Test system: Aβ-40
# Assay: MSD Human (6E10) Ab 3-PLEX elisa, conditioned media of 2B7 cells: Aβ-40
# Type: cell-based
# Conditions: Homo sapiens, Aβ-40 (superscript b); read-out: 50% reduction value
# How it was run: as §1
row,Compound,IC50
1,CCNC(=O)O[C@H](C(C)C)C1C[C@@H](C)[C@H]2C(O1)[C@H](O)[C@@]1(C)C3CC[C@H]4C(C)(C)C(OC(N)=O)CC[C@@]45C[C@@]35CC[C@]21C (stereo partly drawn),1 to 10 µM
2,CCNC(=O)O[C@H](C(C)C)C1C[C@@H](C)[C@H]2C(O1)[C@H](O)[C@@]1(C)C3CC[C@H]4C(C)(C)C(OC(=O)NC5CNC5)CC[C@@]45C[C@@]35CC[C@]21C (stereo partly drawn),1 to 10 µM
3,CNC(=O)OC1CC[C@]23C[C@]24CC[C@]2(C)[C@@H]5C(OC([C@H](OC(=O)N6CCC6)C(C)C)C[C@H]5C)[C@H](O)[C@@]2(C)C4CC[C@H]3C1(C)C (stereo partly drawn),1 to 10 µM
4,CC(C)[C@@H](OC(=O)N1CCC1)C1C[C@@H](C)[C@H]2C(O1)[C@H](O)[C@@]1(C)C3CC[C@H]4C(C)(C)C(OC(=O)N5CC6(COC6)C5)CC[C@@]45C[C@@]35CC[C@]21C (stereo partly drawn),> 10 µM
5,CC(C)[C@@H](OC(=O)N1CCC1)C1C[C@@H](C)[C@H]2C(O1)[C@H](O)[C@@]1(C)C3CC[C@H]4C(C)(C)C(OC(=O)NC5COC5)CC[C@@]45C[C@@]35CC[C@]21C (stereo partly drawn),> 10 µM
6,CC(C)[C@@H](OC(=O)N1CCC1)C1C[C@@H](C)[C@H]2C(O1)[C@H](O)[C@@]1(C)C3CC[C@H]4C(C)(C)C(OC(=O)N5CCn6cnnc6C5)CC[C@@]45C[C@@]35CC[C@]21C (stereo partly drawn),> 10 µM

# Same assay, conditions: Homo sapiens, Aβ-40 (superscript b); read-out: IC50 range
row,Compound,IC50
1,CCNC(=O)O[C@H](C(C)C)C1C[C@@H](C)[C@H]2C(O1)[C@H](O)[C@@]1(C)C3CC[C@H]4C(C)(C)C(OC(=O)NC5CNC5)CC[C@@]45C[C@@]35CC[C@]21C (stereo partly drawn),> 10 µM
2,CNC(=O)OC1CC[C@]23C[C@]24CC[C@]2(C)[C@@H]5C(OC([C@H](OC(=O)N6CCC6)C(C)C)C[C@H]5C)[C@H](O)[C@@]2(C)C4CC[C@H]3C1(C)C (stereo partly drawn),1 to 10 µM

# Same assay, conditions: Homo sapiens; Aβ-40, 20 μM
row,Compound,inhibition at 20 µM
1,CCNC(=O)O[C@H](C(C)C)C1C[C@@H](C)[C@H]2C(O1)[C@H](O)[C@@]1(C)C3CC[C@H]4C(C)(C)C(OC(=O)N5CCOCC5)CC[C@@]45C[C@@]35CC[C@]21C (stereo partly drawn),25 to 75%
2,CC(C)[C@@H](OC(=O)N1CCC1)C1C[C@@H](C)[C@H]2C(O1)[C@H](O)[C@@]1(C)C3CC[C@H]4C(C)(C)C(OC(=O)N5CCn6c(nnc6C(F)(F)F)C5)CC[C@@]45C[C@@]35CC[C@]21C (stereo partly drawn),25 to 75%

# Test system: Aβ-42
# Assay: MSD Human (6E10) Ab 3-PLEX elisa, conditioned media of 2B7 cells: Aβ-42
# Type: cell-based
# Conditions: Homo sapiens; Aβ-42 (superscript c); read-out: 50% reduction value
# How it was run: as §1
row,Compound,IC50
1,CCNC(=O)O[C@H](C(C)C)C1C[C@@H](C)[C@H]2C(O1)[C@H](O)[C@@]1(C)C3CC[C@H]4C(C)(C)C(OC(N)=O)CC[C@@]45C[C@@]35CC[C@]21C (stereo partly drawn),< 1 µM
2,CCNC(=O)O[C@H](C(C)C)C1C[C@@H](C)[C@H]2C(O1)[C@H](O)[C@@]1(C)C3CC[C@H]4C(C)(C)C(OC(=O)NC5CNC5)CC[C@@]45C[C@@]35CC[C@]21C (stereo partly drawn),< 1 µM
3,CNC(=O)OC1CC[C@]23C[C@]24CC[C@]2(C)[C@@H]5C(OC([C@H](OC(=O)N6CCC6)C(C)C)C[C@H]5C)[C@H](O)[C@@]2(C)C4CC[C@H]3C1(C)C (stereo partly drawn),< 1 µM
4,CC(C)[C@@H](OC(=O)N1CCC1)C1C[C@@H](C)[C@H]2C(O1)[C@H](O)[C@@]1(C)C3CC[C@H]4C(C)(C)C(OC(=O)N5CCn6c(nnc6C(F)(F)F)C5)CC[C@@]45C[C@@]35CC[C@]21C (stereo partly drawn),< 1 µM
5,CC(C)[C@@H](OC(=O)N1CCC1)C1C[C@@H](C)[C@H]2C(O1)[C@H](O)[C@@]1(C)C3CC[C@H]4C(C)(C)C(OC(=O)N5CC6(COC6)C5)CC[C@@]45C[C@@]35CC[C@]21C (stereo partly drawn),< 1 µM
6,CC(C)[C@@H](OC(=O)N1CCC1)C1C[C@@H](C)[C@H]2C(O1)[C@H](O)[C@@]1(C)C3CC[C@H]4C(C)(C)C(OC(=O)NC5COC5)CC[C@@]45C[C@@]35CC[C@]21C (stereo partly drawn),< 1 µM
7,CC(C)[C@@H](OC(=O)N1CCC1)C1C[C@@H](C)[C@H]2C(O1)[C@H](O)[C@@]1(C)C3CC[C@H]4C(C)(C)C(OC(=O)N5CCn6cnnc6C5)CC[C@@]45C[C@@]35CC[C@]21C (stereo partly drawn),< 1 µM

# Same assay, conditions: Homo sapiens; Aβ-42 (superscript c); read-out: IC50 range
row,Compound,IC50
1,CCNC(=O)O[C@H](C(C)C)C1C[C@@H](C)[C@H]2C(O1)[C@H](O)[C@@]1(C)C3CC[C@H]4C(C)(C)C(OC(=O)N5CCOCC5)CC[C@@]45C[C@@]35CC[C@]21C (stereo partly drawn),< 1 µM
2,CCNC(=O)O[C@H](C(C)C)C1C[C@@H](C)[C@H]2C(O1)[C@H](O)[C@@]1(C)C3CC[C@H]4C(C)(C)C(OC(=O)NC5CNC5)CC[C@@]45C[C@@]35CC[C@]21C (stereo partly drawn),< 1 µM
3,CNC(=O)OC1CC[C@]23C[C@]24CC[C@]2(C)[C@@H]5C(OC([C@H](OC(=O)N6CCC6)C(C)C)C[C@H]5C)[C@H](O)[C@@]2(C)C4CC[C@H]3C1(C)C (stereo partly drawn),< 1 µM
